{"source": "patent US7265246B2", "about": "“Indane derivates as muscarinic receptor agonists” (Eli Lilly and Company, priority 2003, dated 2007)", "tested_on": "Male Sprague-Dawley rats", "conditions": "s.c. immediately after the sampling phase, six-hour delay", "note": "Like-named read-outs stand apart in the source and are kept apart here.", "data": [{"smiles": "Nc1c2c(nc3ccccc13)CCCC2", "note": "[Tacrine, tacrine]", "values": [{"measurement": "retention in the eight arm radial maze", "setting": "3 mg/kg", "result": "not"}, {"measurement": "retention in the eight arm radial maze", "setting": "10 mg/kg", "result": "significantly improved retention"}]}]}
